Key:
Type in all cases: biochemical
Conditions in all cases: ADP-Glo SIK kinase assay
SIK3 = target: T1, SIK3 (Homo sapiens, UniProt Q9Y2K2); experiment: ADP-Glo kinase assay, SIK3
T1 construct: purchased SignalChem S12-11G-100
In short: (§1)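 Enzyme–substrate mix was started with ATP and incubated 120 min at RT. ADP formed was quantified by ADP-Glo: 40 min ATP depletion, then 30 min detection reagent converting ADP to ATP for luciferase luminescence, which rises with kinase activity. Controls: 1% DMSO and 10 μM staurosporine (final).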

SIK1 = target: T2, SIK1 (Homo sapiens, UniProt P57059); experiment: ADP-Glo kinase assay, SIK1
T2 construct: purchased Carna Biosciences 02-131
T2 sequence (P57059 whole entry): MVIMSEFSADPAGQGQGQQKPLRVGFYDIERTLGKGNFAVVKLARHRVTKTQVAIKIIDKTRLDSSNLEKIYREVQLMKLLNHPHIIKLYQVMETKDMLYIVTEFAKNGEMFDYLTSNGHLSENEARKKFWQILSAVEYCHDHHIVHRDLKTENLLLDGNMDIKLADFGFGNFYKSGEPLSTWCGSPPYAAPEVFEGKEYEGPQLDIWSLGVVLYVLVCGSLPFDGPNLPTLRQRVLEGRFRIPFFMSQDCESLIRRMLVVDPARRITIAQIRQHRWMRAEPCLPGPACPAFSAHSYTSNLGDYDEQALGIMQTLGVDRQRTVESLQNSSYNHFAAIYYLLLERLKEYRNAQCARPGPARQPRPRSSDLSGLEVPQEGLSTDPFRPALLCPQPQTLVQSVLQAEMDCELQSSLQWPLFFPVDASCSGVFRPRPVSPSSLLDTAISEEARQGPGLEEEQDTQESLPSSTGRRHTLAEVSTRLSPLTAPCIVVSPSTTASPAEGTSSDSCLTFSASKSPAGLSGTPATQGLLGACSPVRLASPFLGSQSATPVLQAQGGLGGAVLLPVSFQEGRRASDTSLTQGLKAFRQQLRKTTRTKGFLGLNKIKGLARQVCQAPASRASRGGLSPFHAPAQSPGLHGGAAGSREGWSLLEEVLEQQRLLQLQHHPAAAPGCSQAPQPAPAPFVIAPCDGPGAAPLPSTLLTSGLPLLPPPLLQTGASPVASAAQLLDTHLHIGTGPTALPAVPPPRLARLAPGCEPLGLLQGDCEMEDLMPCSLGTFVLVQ
In short: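 Wells with 1% DMSO or 10 μM staurosporine (final) define the control window. The kinase reaction with substrate and ATP runs 120 min at RT, followed by ADP-Glo detection: ATP depletion (40 min) and ADP-derived luminescence (30 min).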

SIK2 = target: T3, SIK2 (Homo sapiens, UniProt Q9H0K1); experiment: ADP-Glo kinase assay, SIK2
T3 construct: purchased ThermoFisher Scientific PV4792
T3 sequence (Q9H0K1 whole entry): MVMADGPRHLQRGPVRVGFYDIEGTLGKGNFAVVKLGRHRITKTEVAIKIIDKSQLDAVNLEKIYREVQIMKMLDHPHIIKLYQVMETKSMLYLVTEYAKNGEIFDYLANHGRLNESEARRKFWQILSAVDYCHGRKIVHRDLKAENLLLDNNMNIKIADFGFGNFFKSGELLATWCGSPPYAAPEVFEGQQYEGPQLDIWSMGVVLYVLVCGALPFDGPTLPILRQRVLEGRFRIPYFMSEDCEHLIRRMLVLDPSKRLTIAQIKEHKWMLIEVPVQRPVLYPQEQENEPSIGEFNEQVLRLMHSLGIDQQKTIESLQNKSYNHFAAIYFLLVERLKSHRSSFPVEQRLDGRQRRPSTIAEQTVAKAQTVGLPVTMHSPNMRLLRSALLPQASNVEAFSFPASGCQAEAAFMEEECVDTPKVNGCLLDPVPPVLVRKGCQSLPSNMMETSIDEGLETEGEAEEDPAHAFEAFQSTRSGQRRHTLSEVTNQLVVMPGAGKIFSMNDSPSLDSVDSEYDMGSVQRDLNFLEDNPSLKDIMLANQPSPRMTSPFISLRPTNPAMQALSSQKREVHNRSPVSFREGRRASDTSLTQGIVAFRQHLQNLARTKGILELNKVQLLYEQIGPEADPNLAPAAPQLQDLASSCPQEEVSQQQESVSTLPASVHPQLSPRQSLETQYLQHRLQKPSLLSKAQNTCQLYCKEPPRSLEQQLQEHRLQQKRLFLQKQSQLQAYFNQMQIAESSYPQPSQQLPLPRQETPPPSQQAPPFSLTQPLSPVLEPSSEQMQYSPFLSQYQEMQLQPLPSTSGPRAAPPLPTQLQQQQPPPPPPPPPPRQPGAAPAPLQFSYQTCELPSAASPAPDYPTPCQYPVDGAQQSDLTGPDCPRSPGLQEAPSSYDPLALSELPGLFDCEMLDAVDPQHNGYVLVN
In short: as §1

T1 sequence (Q9Y2K2 whole entry): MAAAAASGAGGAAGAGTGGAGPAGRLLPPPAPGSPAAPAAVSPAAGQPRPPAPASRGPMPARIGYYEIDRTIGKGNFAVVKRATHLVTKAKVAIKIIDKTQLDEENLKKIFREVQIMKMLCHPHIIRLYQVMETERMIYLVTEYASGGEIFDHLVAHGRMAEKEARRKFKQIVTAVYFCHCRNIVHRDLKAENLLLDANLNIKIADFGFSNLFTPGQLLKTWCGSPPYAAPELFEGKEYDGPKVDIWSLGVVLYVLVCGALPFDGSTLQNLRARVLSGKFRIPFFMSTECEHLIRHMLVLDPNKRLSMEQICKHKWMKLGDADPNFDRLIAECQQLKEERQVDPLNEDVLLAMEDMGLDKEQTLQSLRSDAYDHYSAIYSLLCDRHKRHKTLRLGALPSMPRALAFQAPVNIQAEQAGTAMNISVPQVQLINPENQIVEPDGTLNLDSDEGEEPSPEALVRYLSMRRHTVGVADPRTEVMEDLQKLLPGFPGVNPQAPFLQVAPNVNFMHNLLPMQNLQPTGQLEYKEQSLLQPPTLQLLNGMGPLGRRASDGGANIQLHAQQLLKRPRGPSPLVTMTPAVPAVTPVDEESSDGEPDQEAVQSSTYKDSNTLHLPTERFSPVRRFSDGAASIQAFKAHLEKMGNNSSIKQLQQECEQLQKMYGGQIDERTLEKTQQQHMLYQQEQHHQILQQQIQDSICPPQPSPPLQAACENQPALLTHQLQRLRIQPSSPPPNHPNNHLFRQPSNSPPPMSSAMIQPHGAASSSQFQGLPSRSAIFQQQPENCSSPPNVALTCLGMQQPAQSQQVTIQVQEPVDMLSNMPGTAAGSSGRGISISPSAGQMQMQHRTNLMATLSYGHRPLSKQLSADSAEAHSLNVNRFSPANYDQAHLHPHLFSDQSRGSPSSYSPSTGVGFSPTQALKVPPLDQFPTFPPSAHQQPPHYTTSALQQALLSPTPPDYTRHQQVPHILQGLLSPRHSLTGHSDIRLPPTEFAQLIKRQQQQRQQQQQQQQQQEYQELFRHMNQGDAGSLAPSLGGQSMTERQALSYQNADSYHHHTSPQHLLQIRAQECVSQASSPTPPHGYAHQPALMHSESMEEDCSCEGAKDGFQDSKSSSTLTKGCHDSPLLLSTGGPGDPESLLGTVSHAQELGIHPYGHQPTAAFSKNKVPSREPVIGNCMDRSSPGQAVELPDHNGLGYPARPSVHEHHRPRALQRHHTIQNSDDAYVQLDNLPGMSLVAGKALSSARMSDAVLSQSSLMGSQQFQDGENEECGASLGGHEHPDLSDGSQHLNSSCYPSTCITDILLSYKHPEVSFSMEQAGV

Row | SMILES | IC50 (SIK3) | IC50 (SIK1) | IC50 (SIK2)
1 | COc1cc(-c2cnc3cc(OCc4ncccn4)ccn23)cc(OC(F)F)c1C(=O)NC1CC1 [compound 94, N-cyclopropyl-2-(difluoromethoxy)-6-methoxy-4-[7-(pyrimidin-2-ylmethoxy)imidazo[1,2-a]pyridin-3-yl]benzamide] | 10 to 100 nM | 10 to 100 nM | 10 to 100 nM
2 | COc1cc(-c2cnc3cc(OCC4CCN4)ccn23)cc(OC(F)F)c1C(=O)NC1CC1 (stereo not drawn) [Cpd 109, 4-[7-(azetidin-2-ylmethoxy)imidazo[1,2-a]pyridin-3-yl]-N-cyclopropyl-2-(difluoromethoxy)-6-methoxy-benzamide] | 0.01 to 10 nM | 10 to 100 nM | 0.01 to 10 nM
3 | O=C1c2ncc(-c3cnc4cc(OCCN5CCOCC5)ccn34)cc2CN1CC(F)(F)F [Cpd 266, 3-[7-(2-morpholinoethoxy)imidazo [1,2-a]pyridin-3-yl]-6-(2,2,2-trifluoroethyl)-5H-pyrrolo[3,4-b]pyridin-7-one] | > 500 nM | > 500 nM | > 500 nM
4 | COc1cc(-c2cnc3cc(OCC4(F)CN(C(=O)OC(C)(C)C)C4)ccn23)cc(OC(F)F)c1C(=O)NC1CC1 [Cpd 187, tert-butyl 3-[[3-[4-(cyclopropylcarbamoyl)-3-(difluoromethoxy)-5-methoxy-phenyl]imidazo[1,2-a]pyridin-7-yl]oxymethyl]-3-fluoro-azetidine-1-carboxylate] | 0.01 to 10 nM | 10 to 100 nM | 0.01 to 10 nM
5 | COc1cc(-c2cnc3cc(OCC4CCC4)ccn23)cc(OC(F)F)c1C(=O)NC1CC1 [Cpd 71, 4-[7-(cyclobutylmethoxy)imidazo[1,2-a]pyridin-3-yl]-N-cyclopropyl-2-(difluoromethoxy)-6-methoxy-benzamide] | 0.01 to 10 nM | 0.01 to 10 nM | 0.01 to 10 nM
6 | COc1cc(-c2cnc3cc(OC4CCOCC4)ccn23)cc(OC)c1C(=O)NCC(F)(F)F [Cpd 4, 2,6-dimethoxy-4-(7-tetrahydropyran-4-yloxyimidazo[1,2-a]pyridin-3-yl)-N-(2,2,2-trifluoroethyl) benzamide] | 10 to 100 nM | > 500 nM | 100 to 500 nM
7 | COc1cc(-c2cnc3cc(OCc4cscn4)ccn23)cc(OC(F)F)c1C(=O)NC1CC1 [compound 46, N-cyclopropyl-2-(difluoromethoxy)-6-methoxy-4-[7-(thiazol-4-ylmethoxy)imidazo[1,2-a]pyridin-3-yl]benzamide] | 0.01 to 10 nM | 10 to 100 nM | 0.01 to 10 nM
8 | COc1cc(-c2cnc3cc(OCC(F)F)ccn23)cc(OC(F)F)c1C(=O)NC1CC1 [compound 90, N-cyclopropyl-4-[7-(2,2-difluoroethoxy)imidazo [1,2-a]pyridin-3-yl]-2-(difluoromethoxy)-6-methoxy-benzamide] | 0.01 to 10 nM | 10 to 100 nM | 0.01 to 10 nM
9 | COc1cc(-c2cnc3cc(OC[C@@H]4COCCO4)ccn23)cc(OC(F)F)c1C(=O)NC1CC1 [compound 120, N-cyclopropyl-2-(difluoromethoxy)-4-[7-[[(2S)-1,4-dioxan-2-yl]methoxy]imidazo[1,2-a]pyridin-3-yl]-6-methoxy-benzamide] | 0.01 to 10 nM | 10 to 100 nM | 0.01 to 10 nM
10 | COc1cc(-c2cnc3cc(OCCN(C)c4ccccn4)ccn23)cc(OC(F)F)c1C(=O)NC1CC1 [Cpd 183, N-cyclopropyl-2-(difluoromethoxy)-6-methoxy-4-[7-[2-[methyl(2-pyridyl)amino]ethoxy]imidazo[1,2-a]pyridin-3-yl]benzamide] | 0.01 to 10 nM | 0.01 to 10 nM | 0.01 to 10 nM
11 | COc1cc(-c2cnc3cc(OC(C)(C)C#N)ccn23)cc(OC(F)F)c1C(=O)NC1CC1 [Cpd 263, 4-[7-(1-cyano-1-methyl-ethoxy)imidazo[1,2-a]pyridin-3-yl]-N-cyclopropyl-2-(difluoromethoxy)-6-methoxy-benzamide] | 10 to 100 nM | > 500 nM | > 500 nM
12 | COc1cc(-c2cnc3cc(OCCCN4CCCCC4)ccn23)cc(OC(F)F)c1C(=O)N1CC(C#N)C1 [Cpd 357, 1-[2-(difluoromethoxy)-6-methoxy-4-[7-[3-(1-piperidyl)propoxy]imidazo[1,2-a]pyridin-3-yl]benzoyl]azetidine-3-carbonitrile] | 0.01 to 10 nM | 10 to 100 nM | 0.01 to 10 nM
13 | COc1cc(-c2cnc3cc(Oc4ccccn4)ccn23)cc(OC(F)F)c1C(=O)NC1CC1 [compound 145, N-cyclopropyl-2-(difluoromethoxy)-6-methoxy-4-[7-(2-pyridyloxy)imidazo[1,2-a]pyridin-3-yl]benzamide] | 10 to 100 nM | 100 to 500 nM | 10 to 100 nM
14 | COc1cc(-c2cnc3cc(OCC4CN(CC(C)(C)O)C4)ccn23)cc(OC(F)F)c1C(=O)NC1CC1 [Cpd 342, N-cyclopropyl-2-(difluoromethoxy)-4-[7-[[1-(2-hydroxy-2-methyl-propyl)azetidin-3-yl]methoxy]imidazo[1,2-a]pyridin-3-yl]-6-methoxy-benzamide] | 0.01 to 10 nM | 10 to 100 nM | 0.01 to 10 nM
15 | CCOCCOc1cc(-c2cnc3cc(OCCN(C)C)ccn23)cc(OC)c1C(=O)NC1CC1 [Cpd 56, N-cyclopropyl-4-[7-[2-(dimethylamino)ethoxy]imidazo [1,2-a]pyridin-3-yl]-2-(2-ethoxyethoxy)-6-methoxy-benzamide] | 100 to 500 nM | > 500 nM | 100 to 500 nM

Second part, the compound after the results:

Row | IC50 (SIK3) | IC50 (SIK1) | IC50 (SIK2) | SMILES
16 | 0.01 to 10 nM | 10 to 100 nM | 0.01 to 10 nM | COc1cc(-c2cnc3cc(OCCN4CCOC(C#N)C4)ccn23)cc(OC(F)F)c1C(=O)NC1CC1 (stereo not drawn) [compound 213, 4-[7-[2-(2-cyanomorpholin-4-yl)ethoxy]imidazo[1,2-a]pyridin-3-yl]-N-cyclopropyl-2-(difluoromethoxy)-6-methoxy-benzamide]
17 | 0.01 to 10 nM | 0.01 to 10 nM | 0.01 to 10 nM | COc1cc(-c2cnc3cc(OCC4CN(C)C(=O)O4)ccn23)cc(OC(F)F)c1C(=O)NC1CC1 (stereo not drawn) [compound 228, N-cyclopropyl-2-(difluoromethoxy)-6-methoxy-4-[7-[(3-methyl-2-oxo-oxazolidin-5-yl)methoxy]imidazo[1,2-a]pyridin-3-yl]benzamide]
18 | 10 to 100 nM | 100 to 500 nM | 0.01 to 10 nM | COc1cc(-c2cnc3cc(OCCCN4CCCCC4)ccn23)cc(OC(F)F)c1C(=O)N[C@@H]1CC[C@H]1O (racemic) [compound 359, 2-(difluoromethoxy)-N-[(1R,2R)-2-hydroxycyclobutyl]-6-methoxy-4-[7-[3-(1-piperidyl)propoxy]imidazo[1,2-a]pyridin-3-yl]benzamide/2-(difluoromethoxy)-N-[(1S,2S)-2-hydroxycyclobutyl]-6-methoxy-4-[7-[3-(1-piperidyl)propoxy]imidazo[1,2-a]pyridin-3-yl]benzamide mixture]
19 | 0.01 to 10 nM | 100 to 500 nM | 0.01 to 10 nM | COc1cc(-c2cnc3cc(OCC4CCCN4C(C)C)ccn23)cc(OC(F)F)c1C(=O)NC1CC1 (stereo not drawn) [compound 295, N-cyclopropyl-2-(difluoromethoxy)-4-[7-[(1-isopropylpyrrolidin-2-yl)methoxy]imidazo[1,2-a]pyridin-3-yl]-6-methoxy-benzamide]
20 | 0.01 to 10 nM | 10 to 100 nM | 0.01 to 10 nM | COc1cc(-c2cnc3cc(OC[C@@H]4CCN(C5COC5)C4)ccn23)cc(OC(F)F)c1C(=O)NC1CC1 [compound 336, N-cyclopropyl-2-(difluoromethoxy)-6-methoxy-4-[7-[[(3R)-1-(oxetan-3-yl)pyrrolidin-3-yl]methoxy]imidazo[1,2-a]pyridin-3-yl]benzamide]
21 | 0.01 to 10 nM | 100 to 500 nM | 0.01 to 10 nM | COc1cc(-c2cnc3cc(OCC4(F)CNC4)ccn23)cc2c1C(=O)N(CC(F)(F)F)CC2 [compound 250, 6-[7-[(3-fluoroazetidin-3-yl)methoxy]imidazo[1,2-a]pyridin-3-yl]-8-methoxy-2-(2,2,2-trifluoroethyl)-3,4-dihydro isoquinolin-1-one]
22 | 0.01 to 10 nM | 100 to 500 nM | 0.01 to 10 nM | COc1cc(-c2cnc3cc(OCC(C)N(C)C)ccn23)cc(OC(F)F)c1C(=O)NC1CC1 (stereo not drawn) [compound 202, N-cyclopropyl-2-(difluoromethoxy)-4-[7-[2-(dimethylamino)propoxy]imidazo[1,2-a]pyridin-3-yl]-6-methoxy-benzamide]
23 | 0.01 to 10 nM | 0.01 to 10 nM | 0.01 to 10 nM | COc1cc(-c2cnc3cc(OCCNc4ccncn4)ccn23)cc(OC(F)F)c1C(=O)NC1CC1 [compound 369, N-cyclopropyl-2-(difluoromethoxy)-6-methoxy-4-[7-[2-(pyrimidin-4-ylamino)ethoxy]imidazo [1,2-a]pyridin-3-yl]benzamide]
24 | 0.01 to 10 nM | 10 to 100 nM | 0.01 to 10 nM | COC(=O)[C@@H]1CN(CCOc2ccn3c(-c4cc(OC)c(C(=O)NC5CC5)c(OC(F)F)c4)cnc3c2)CCO1 [compound 389, methyl (2S)-4-[2-[3-[4-(cyclopropylcarbamoyl)-3-(difluoromethoxy)-5-methoxy-phenyl]imidazo[1,2-a]pyridin-7-yl]oxyethyl]morpholine-2-carboxylate]
25 | 0.01 to 10 nM | 100 to 500 nM | 0.01 to 10 nM | CNCCOc1ccn2c(-c3cc4c(c(OC)c3)C(=O)N(CC(F)(F)F)CC4)cnc2c1 [compound 185, 8-methoxy-6-[7-[2-(methylamino)ethoxy]imidazo[1,2-a]pyridin-3-yl]-2-(2,2,2-trifluoroethyl)-3,4-dihydroisoquinolin-1-one]

— US12264156B2, “Compounds and pharmaceutical compositions thereof for the treatment of diseases” (GALAPAGOS NV, priority 2018, dated 2025)
